In patent US4179441A, “Fungidal and herbicidal 2-substituted-3-oxa-3aλ^4, 4-dithia-6-halo-1,5-diazapentalene” (Chevron Research Company, priority 1977, dated 1979):
Read-outs that look alike come from different tables or passages of the source.

How the values were obtained:
[1] = test system: Septoria apii; settings: in vivo
[2] = test system: Lambsquarter (Chenopodium album); assay: Post-emergent herbicidal test; type: in vivo; settings: 0-to-100 scale
[3] = test system: Mustard (Brassica arvensis); assay: Post-emergent herbicidal test; type: in vivo; settings: 0-to-100 scale
[4] = test system: Erysiphe polygoni; assay: Powdery Mildew (bean seedlings); type: in vivo; settings: 240 h, 250 ppm spray on bean seedlings, about 10 days, relative to untreated check plants
Text: The powdery mildew test was made using bean seedlings (var. Bountiful) with well-developed primary leaves. The pathogen was Erysiphe polygoni. The bean seedlings were sprayed with a 250 ppm solution of the test compound in an acetone-water mixture containing a nonionic emulsifier. The treated plants were inoculated one day after spray application of the test compound with the pathogen. […] The rate of infection on the leaves was made after about 10 days. The percent disease control provided by a given test compound was based on the disease reduction relative to untreated check plants.

[5] = test system: Crabgrass (Digitaria sanguinalis); assay: Post-emergent herbicidal test; type: in vivo; settings: 0-to-100 scale
[6] = test system: Wild Oats (Avena fatua); assay: Post-emergent herbicidal test; type: in vivo; settings: 0-to-100 scale
[7] = test system: Crabgrass (Digitaria sanguinalis); assay: Pre-Emergent herbicidal test; type: in vivo; settings: 33 micrograms/cm^2, 3 weeks, 0-to-100 scale, 100 = complete kill
Protocol: (§1) Pre-emergent herbicidal tests on representative compounds of the invention were made using the following method:
(§2) An acetone solution of the test compound was prepared by mixing 750 mg of the compound, 220 mg of a nonionic surfactant and 25 ml of acetone. This solution was added to approximately 125 ml of water containing 156 mg of surfactant.
(§3) Seeds of the test vegetation were planted in a pot of soil and the test solution was sprayed uniformly onto the soil surface at a dose of 33 micrograms/cm^2. The pot was watered and placed in a greenhouse. […] At the end of this period, the herbicidal effectiveness of the compound was rated based on the physiological observations. A 0-to-100 scale was used, 0 representing no phytotoxicity, 100 representing complete kill.

[8] = test system: Lambsquarter (Chenopodium album); assay: Pre-Emergent herbicidal test; type: in vivo; settings: 33 micrograms/cm^2, 3 weeks, 0-to-100 scale, 100 = complete kill
Protocol: as §1, §2, §3

[9] = test system: Watergrass (Echinochloa crusgalli); assay: Pre-Emergent herbicidal test; type: in vivo; settings: 33 micrograms/cm^2, 3 weeks, 0-to-100 scale, 100 = complete kill
Protocol: as §1, §2, §3

[10] = test system: Mustard (Brassica arvensis); assay: Pre-Emergent herbicidal test; type: in vivo; settings: 33 micrograms/cm^2, 3 weeks, 0-to-100 scale, 100 = complete kill
Protocol: as §1, §2, §3

[11] = test system: Wild Oats (Avena fatua); assay: Pre-Emergent herbicidal test; type: in vivo; settings: 33 micrograms/cm^2, 3 weeks, 0-to-100 scale, 100 = complete kill
Protocol: as §1, §2, §3

[12] = test system: Watergrass (Echinochloa crusgalli); assay: Post-emergent herbicidal test; type: in vivo; settings: 0-to-100 scale
[13] = test system: Fusarium moniliforme; assay: Mycelia Inhibition; type: cell-based; settings: mycelial inhibition, 25° C., 24 hours
[14] = test system: Rhizoctonia solani; assay: Mycelia Inhibition; type: cell-based; settings: mycelial inhibition, 25° C., 24 hours
[15] = test system: Alternaria solani; assay: Tomato Early Blight; type: in vivo; settings: 288 h, read-out: Tomato Early blight % Control
[16] = test system: Botrytis cinerea; assay: Botrytis cinerea control (detached horsebean leaves); type: in vivo; settings: 3 to 5 days
Protocol: Compounds of the invention were tested for Botrytis cinerea control using detached, well-developed primary leaves of a 4-6 week old horsebean plant. […] The leaves were allowed to dry while the filter paper was kept moist by adding water as required. The treated leaves were then inoculated with the spores of Botrytis cinerea fungus grown on potato. The plate was covered after inoculation and kept at 23.5° C. The filter-paper lining of the plate was kept saturated with water throughout the test. The rate of disease incidence was determined in 3 to 5 days, when the disease symptoms were fully evident on non-treated check leaves. […]

[17] = test system: Phytophthora infestans; assay: whole plant or invertebrate; type: in vivo; settings: in Solanum lycopersicum, 168 h, read-out: Tomato Late Blight % Control
[18] = test system: Pythium ultimum; assay: Mycelia Inhibition; type: cell-based; settings: mycelial inhibition, 25° C., 24 hours
[19] = test system: Aspergillus niger; assay: Mycelia Inhibition; type: cell-based; settings: mycelial inhibition, 25° C., 24 hours

| SMILES | Celery Late Blight % Control [1] [%] | Herbicidal Effectiveness - Post, L [2] | Herbicidal Effectiveness - Post, M [3] | pest or weed control at 250 ppm [4] [%] | Herbicidal Effectiveness - Post, C [5] | Herbicidal Effectiveness - Post, O [6] | Herbicidal Effectiveness - Pre, C [7] | Herbicidal Effectiveness - Pre, L [8] | Herbicidal Effectiveness - Pre, W [9] | Herbicidal Effectiveness - Pre, M [10] | Herbicidal Effectiveness - Pre, O [11] | Herbicidal Effectiveness - Post, W [12] | Fusarium moniliforme, micrograms/cm^2 for 99% control of the fungus [13] [micrograms/cm^2] | Rhizoctonia solani, micrograms/cm^2 for 99% control of the fungus [14] [micrograms/cm^2] | pest or weed control at 250 ppm ([15]; 250 ppm spray, inoculated one day later, based on untreated check plants) [%] | Botrytis Cinerea, micrograms/cm^2 for 99% control of the fungus [16] [micrograms/cm^2] | pest or weed control at 250 ppm [17] [%] | Pythium ultimum, micrograms/cm^2 for 99% control of the fungus [18] [micrograms/cm^2] | Aspergillus niger, micrograms/cm^2 for 99% control of the fungus [19] [micrograms/cm^2] | pest or weed control at 250 ppm [15] [%] |
| --- | --- | --- | --- | --- | --- | --- | --- | --- | --- | --- | --- | --- | --- | --- | --- | --- | --- | --- | --- | --- |
| Cc1cc(Cl)ccc1OCC1=NC2=S(O1)SN=C2Cl (centres unmarked) [Compound 19] | 92 | 95 | 100 | 57 | 0 | 10 | 85 | 100 | 75 | 100 | 35 | 40 |  |  |  |  |  |  |  |  |
| ClC1=NSS2=C1N=C(CI)O2 (centres unmarked) [Compound 9, 2-iodomethyl-3-oxa-3aλ^4,4-dithia-6-chloro-1,5-diazapentalene] | 71 |  |  |  |  |  |  |  |  |  |  |  | 0.82 | 0.6 | 81 | 0.37 | 62 | 0.12 | 0.52 |  |
| ClC1=NSS2=C1N=C(COc1ccc(Cl)cc1)O2 (centres unmarked) [Compound 25] |  | 85 | 85 | 29 | 0 | 0 | 70 | 90 | 20 | 95 | 0 | 0 |  |  |  |  |  |  |  | 88 |
| FC(F)(F)c1cccc(C2=NC3=S(O2)SN=C3Cl)c1 (centres unmarked) [Compound 4] | 23 |  |  | 80 |  |  |  |  |  |  |  |  | > 1.7 | 0.65 |  |  |  | > 1.7 | > 1.7 |  |
